Data: patent EP3478687B1 (Daewoong Pharmaceutical Co., Ltd., priority 2016, dated 2018)
pIC50: −log10 of the molar value.

Legend:
[1] = molecular target: T1, Recombinant purified human JAK3 (Homo sapiens, UniProt P52333); experiment: JAK3 kinase inhibitory activity, ADP-Glo kinase assay (Promega V9441); format: biochemical; conditions: ATP 5 uM, 4 ng JAK3 per reaction, 1 hour 30 °C, chemiluminescence
T1 construct: purchased Promega V9441
T1 sequence (P52333 1-1124): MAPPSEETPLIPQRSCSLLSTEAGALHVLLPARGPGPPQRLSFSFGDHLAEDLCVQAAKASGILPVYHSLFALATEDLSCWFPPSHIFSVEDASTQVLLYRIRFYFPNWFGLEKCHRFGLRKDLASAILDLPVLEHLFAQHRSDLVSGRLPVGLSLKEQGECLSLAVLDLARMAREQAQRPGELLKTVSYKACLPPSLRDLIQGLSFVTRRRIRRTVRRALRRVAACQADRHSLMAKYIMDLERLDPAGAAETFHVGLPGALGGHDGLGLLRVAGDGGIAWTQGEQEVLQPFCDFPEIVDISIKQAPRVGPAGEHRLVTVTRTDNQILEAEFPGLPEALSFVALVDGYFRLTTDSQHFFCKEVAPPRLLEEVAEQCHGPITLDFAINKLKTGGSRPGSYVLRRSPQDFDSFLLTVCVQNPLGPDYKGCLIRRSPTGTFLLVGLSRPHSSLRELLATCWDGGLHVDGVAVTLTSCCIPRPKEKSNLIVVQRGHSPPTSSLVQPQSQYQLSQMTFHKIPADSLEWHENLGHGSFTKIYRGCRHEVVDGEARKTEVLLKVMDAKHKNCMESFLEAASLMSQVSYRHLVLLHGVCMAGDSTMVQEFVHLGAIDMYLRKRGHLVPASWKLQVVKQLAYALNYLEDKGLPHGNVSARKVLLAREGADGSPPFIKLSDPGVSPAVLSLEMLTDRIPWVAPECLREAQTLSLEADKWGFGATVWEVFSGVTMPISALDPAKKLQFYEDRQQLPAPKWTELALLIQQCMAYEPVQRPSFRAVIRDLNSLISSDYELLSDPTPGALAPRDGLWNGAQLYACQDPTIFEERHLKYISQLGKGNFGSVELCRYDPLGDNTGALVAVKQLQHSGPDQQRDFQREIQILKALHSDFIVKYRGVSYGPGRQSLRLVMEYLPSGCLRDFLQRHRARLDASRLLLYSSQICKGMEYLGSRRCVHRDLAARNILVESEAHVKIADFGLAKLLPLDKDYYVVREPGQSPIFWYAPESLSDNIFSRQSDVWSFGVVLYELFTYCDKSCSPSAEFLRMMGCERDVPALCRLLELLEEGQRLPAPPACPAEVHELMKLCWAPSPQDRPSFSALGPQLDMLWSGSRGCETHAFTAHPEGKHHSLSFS
In short: (§1)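 Recombinant human kinases in Tris pH 7.5 buffer with MgCl2, BSA and DTT (MnCl2 added for BTK), 4 ng JAK3 or 8 ng BTK per reaction. Poly(Glu4,Tyr1) 0.2 µg/µL with 5 µM (JAK3) or 10 µM (BTK) ATP, 1% DMSO, 1 h at 30 °C. ADP-Glo luminescence used to derive IC50.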

[2] = molecular target: T2, Recombinant purified human BTK (Homo sapiens, UniProt Q06187); experiment: BTK kinase inhibitory activity, ADP-Glo kinase assay (Promega V9071); format: biochemical; conditions: for pIC50: ATP 10 uM, 8 ng BTK per reaction, 1 hour 30 °C, chemiluminescence
T2 construct: purchased Promega V9071
In short: as §1

T2 sequence (Q06187 whole entry): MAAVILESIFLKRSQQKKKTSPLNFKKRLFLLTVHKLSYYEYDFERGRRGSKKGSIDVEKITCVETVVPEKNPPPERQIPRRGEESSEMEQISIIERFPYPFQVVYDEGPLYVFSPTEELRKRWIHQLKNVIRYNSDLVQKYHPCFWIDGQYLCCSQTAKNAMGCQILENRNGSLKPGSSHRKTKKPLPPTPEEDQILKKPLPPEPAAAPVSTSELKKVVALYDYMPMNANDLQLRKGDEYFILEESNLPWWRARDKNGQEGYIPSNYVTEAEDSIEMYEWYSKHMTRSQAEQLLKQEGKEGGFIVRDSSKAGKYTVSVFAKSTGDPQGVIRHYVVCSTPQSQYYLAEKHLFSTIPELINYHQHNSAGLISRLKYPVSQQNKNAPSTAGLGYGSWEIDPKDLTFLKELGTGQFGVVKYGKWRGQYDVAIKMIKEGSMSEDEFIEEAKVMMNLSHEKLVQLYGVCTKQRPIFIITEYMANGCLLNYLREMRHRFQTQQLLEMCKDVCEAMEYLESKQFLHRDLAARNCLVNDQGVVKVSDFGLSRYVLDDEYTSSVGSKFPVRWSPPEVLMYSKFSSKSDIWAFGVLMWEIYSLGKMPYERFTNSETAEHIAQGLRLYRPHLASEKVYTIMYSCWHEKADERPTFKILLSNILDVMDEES

Row | SMILES | pIC50 [1] | pIC50 [2] | inhibition at 0.1 µM ([2]; @100nM compound) | inhibition at 1 µM ([2]; @1uM compound)
1 | C=CC(=O)N1CCC[C@@H](Nc2nc(Nc3cnn(CCC)c3)nc3[nH]nc(Cl)c23)C1 [Example 51, (R)-1-(3-(3-chloro-6-(1-propyl-lH-pyrazol-4-ylamino)-1H-pyrazolo [3,4-d]pyrimidin-4-ylamino)piperidin-1-yl)prop-2-en-1-one] | 9.10 | 8.74 |  | 
2 | C=CC(=O)N1CC[C@@H](C)[C@@H](Nc2nc(Nc3cnn(Cc4cccc(OC)c4)c3)nc3[nH]nc(Cl)c23)C1 [Example 125, 1-((3R,4R)-3-((3-chloro-6-((1-(3-methoaybenzyl)-1H-pyrazol-4-yl)amino)-1H-pyrazolo[3,4-d]pyrimidin-4-yl)amino)-4-methylpiperidin-1-yl)prop-2-en-1-one] | 7.69 | 8.09 |  | 
3 | C=CC(=O)N1CCC[C@@H](Oc2nc(Nc3cnn(CC)c3)nc3[nH]nc(Cl)c23)C1 [Example 147] | 8.85 | 8.68 |  | 
4 | C=CC(=O)N1CCC[C@@H](Nc2nc(Nc3ccc(-n4nc(C)cc4C)cc3)nc3[nH]ccc23)C1 [Example 6, (R)-1-(3-(2-(4-(3,5-dimethyl-1H-pyrazol-1-yl)phenylamino)-7H-pyrrolo [2,3-d]pyrimidin-4-ylamino)piperidin-1-yl)prop-2-en-1-one] | 8.34 | 8.02 |  | 
5 | CC(C)/C=C(\C#N)C(=O)N1CCC[C@@H](Oc2nc(Nc3cnn(C4CC4)c3)nc3[nH]nc(Cl)c23)C1 [Example 158, (R,E)-2-(3-((3-chloro-6-((1-cyclopropyl-1H-pyrazol-4-yl)amino)-1H-pyrazolo[3,4-d]pyrimidin-4-yl)oxy)piperidine-1-carbonyl)-4-methylpent-2-enenitrile] | 8.54 | 8.92 |  | 
6 | C=CC(=O)N1CCC[C@@H](Nc2nc(Nc3ccc(C(=O)N4CCOCC4)cc3)nc3[nH]cc(Cl)c23)C1 [Example 68, (R)-1-(3-((5-chloro-2-((4-(morpholine-4-carbonyl)phenyl)amino)-7H-pyrrolo[2,3-d]pyrimidin-4-yl)amino)piperidin-1-yl)prop-2-en-1-one] | 9.15 | 7.92 |  | 
7 | C/C=C/C(=O)N1CCC[C@@H](Nc2nc(Nc3ccc(N4CCN(C)CC4)cc3)nc3[nH]cc(Cl)c23)C1 [Example 140, (R,E)-1-(3-((5-chloro-2-((4-(4-methylpiperazin-1-yl)phenyl)amino)-7H-pyrrolo [2,3-d]pyrimidin-4-yl)amino)piperidin-1-yl)but-2-en-1-one] | < 7.10 | 6.01 |  | 
8 | C=CC(=O)N1CC[C@@H](C)[C@@H](Nc2nc(Nc3cnn(CC)c3)nc3[nH]ncc23)C1 [Example 106, 1-((3R,4R)-3-((6-((1-ethyl-1H-pyrazol-4-yl)amino)-1H-pyrazolo [3,4-d]pyrimidin-4-yl)amino)-4-methylpiperidin-1-yl)prop-2-en-1-one] | 7.26 | 8.74 |  | 
9 | C=CC(=O)N1CCC[C@@H](Nc2nc(Nc3ccc(N4CCN(C)CC4)cc3)nc3[nH]ccc23)C1 [Example 1, (R)-1-(3-(2-(4-(4-methylpiperazin-1-yl)phenylamino)-7H-pyrrolo[2,3-d]pyrimidin-4-ylamino)piperidin-1-yl)prop-2-en-1-one] | 8.43 | 7.97 |  | 
10 | C=CC(=O)NC1CCCC(Nc2nc(Nc3ccc(N4CCN(C)CC4)cc3)nc3[nH]ccc23)C1 (stereo not shown) [Example 29, N-(3-(2-(4-(4-methylpiperazin-1-yl)phenylamino)-7H-pyrrolo[2,3-d]pyrimidin-4-ylamino)cyclohexyl)acrylamide] | 7.18 |  |  | 47.1%
11 | CCn1cc(Nc2nc(N[C@H]3CN(C(=O)CCl)CC[C@H]3C)c3c(Cl)n[nH]c3n2)cn1 [Example 183, 2-chloro-1-((3R,4R)-3-((3-chloro-6-((1-ethyl-1H-pyrazol-4-yl)amino)-1H-pyrazolo [3,4-d]pyrimidin-4-yl)amino)-4-methylpiperidin-1-yl)ethan-1-one] | 9.10 | 8.80 |  | 

The remaining compounds from weak to strong by pIC50 [1], led by results:

Row | pIC50 [1] | pIC50 [2] | inhibition at 0.1 µM ([2]; @100nM compound) | inhibition at 1 µM ([2]; @1uM compound) | SMILES
12 | 7.37 | 8.64 |  |  | C=CC(=O)N1CC[C@@H](C)[C@@H](Nc2nc(Nc3cnn(C4CC4)c3)nc3[nH]nc(SC)c23)C1 [Example 135, 1-((3R,4R)-3-((6-((1-cyclopropyl-1H-pyrazol-4-yl)amino)-3-(methylthio)-1H-pyrazolo[3,4-d]pyrimidin-4-yl)amino)-4-methylpiperidin-1-yl)prop-2-en-1-one]
13 | 7.59 | 8.68 |  |  | C=CC(=O)N1CC[C@@H](C)[C@@H](Nc2nc(Nc3cnn(CC)c3)nc3[nH]nc(SC)c23)C1 [Example 132, 1-((3R,4R)-3-((6-((1-ethyl-1H-pyrazol-4-yl)amino)-3-(methylthio)-1H-pyrazolo[3,4-d]pyrimidin-4-yl)amino)-4-methylpiperidin-1-yl)prop-2-en-1-one]
14 | 7.95 |  | 39.3% |  | CC#CC(=O)N1CCC[C@@H](Nc2nc(Nc3cnn(CC(F)F)c3)nc3[nH]ccc23)C1 [Example 25, (R)-1-(3-(2-(1-(2,2-difluoroethyl)-1H-pyrazol-4-ylamino)-7H-pyrrolo[2,3-d]pyrimidin-4-ylamino)piperidin-1-yl)but-2-yn-1-one]
15 | 8.25 | 8.92 |  |  | CCn1cc(Nc2nc(N[C@@H]3CCCN(C(=O)/C(C#N)=C/C4CC4)C3)c3c(Cl)n[nH]c3n2)cn1 [Example 166]
16 | 8.55 | 8.64 |  |  | C=CC(=O)N1CCC[C@@H](Sc2nc(Nc3cnn(CC(C)C)c3)nc3[nH]nc(Cl)c23)C1 [Example 113, (R)-1-(3-((3-chloro-6-((1-isobutyl-1H-pyrazol-4-yl)amino)-1H-pyrazolo[3,4-d]pyrimidin-4-yl)thio)piperidin-1-yl)prop-2-en-1-one]
17 | 8.66 | 8.72 |  |  | N#C/C(=C\C1CCCC1)C(=O)N1CCC[C@@H](Nc2nc(Nc3cnn(C4CC4)c3)nc3[nH]nc(Cl)c23)C1 [Example 165, (R,E)-2-(3-((3-chloro-6-((1-cyclopropyl-1H-pyrazol-4-yl)amino)-1H-pyrazolo[3,4-d]pyrimidin-4-yl)amino)piperidine-1-carbonyl)-3-cyclopentylacrylonitrile]
18 | 8.70 | 8.35 |  |  | C=CC(=O)N1CCC[C@@H](Oc2nc(Nc3ccc(N4CCOCC4)cc3)nc3[nH]ccc23)C1 [Example 152, (R)-1-(3-((2-((4-morpholinophenyl)amino)-7H-pyrrolo[2,3-d]pyrimidin-4-yl)oay)piperidin-1-yl)prop-2-en-1-one]
19 | 8.82 | 8.66 |  |  | C=CC(=O)N1CCC[C@@H](Sc2nc(Nc3cnn(CC)c3)nc3[nH]cc(F)c23)C1 [Example 85, (R)-1-(3-((2-((1-ethyl-1H-pyrazol-4-yl)amino)-5-fluoro-7H-pyrrolo[2,3-d]pyrimidin-4-yl)thio)piperidin-1-yl)prop-2-en-1-one]
20 | 9.15 | 8.77 |  |  | C=CC(=O)N1CCC[C@@H](Nc2nc(Nc3cnn(C(F)F)c3)nc3[nH]nc(Cl)c23)C1 [Example 64, (R)-1-(3-((3-chloro-6-((1-(difluoromethyl)-1H-pyrazol-4-yl)amino)-1H-pyrazolo[3,4-d]pyrimidin-4-yl)amino)piperidin-1-yl)prop-2-en-1-one]
21 | 9.40 | 7.82 |  |  | C=CC(=O)N1CCC[C@@H](Nc2nc(Nc3cnn(CC(=O)NC)c3)nc3[nH]ccc23)C1 [Example 24, (R)-2-(4-(4-(1-acryloylpiperidin-3-ylamino)-7H-pyrrolo[2,3-d]pyrimidin-2-ylamino)-1H-pyrazol-1-yl)-N-methylacetamide]
22 | 9.52 | 8.77 |  |  | C=CC(=O)N1CCC[C@@H](Nc2nc(Nc3cnn(CC(C)C)c3)nc3[nH]cc(Cl)c23)C1 [Example 63, (R)-1-(3-((5-chloro-2-((1-isobutyl-1H-pyrazol-4-yl)amino)-7H-pyrrolo[2,3-d]pyrimidin-4-yl)amino)piperidin-1-yl)prop-2-en-1-one]
23 | 9.70 | 8.64 |  |  | C=CC(=O)N1CCC[C@@H](Nc2nc(Nc3cnn(C(C)(C)C)c3)nc3[nH]cc(Cl)c23)C1 [Example 70, (R)-1-(3-((2-((1-(tert-butyl)-1H-pyrazol-4-yl)amino)-5-chloro-7H-pyrrolo[2,3-d]pyrimidin-4-yl)amino)piperidin-1-yl)prop-2-en-1-one]
